Values after ≈ are worked out from the molar mass of the structure shown. Values joined by “and” are separate entries in the source; they are usually repeats but may differ in a detail not shown here. Equal values may be shown once.
Experiments:
[1] = system: S. pneumoniae; experiment: MIC and MBC:MIC ratio, recent ocular isolates; format: cell-based; conditions: S. pneumoniae (N = 35); for MIC50 / MIC90: Streptococcus pneumoniae
[2] = system: S. epidermidis; experiment: MIC and MBC:MIC ratio, recent ocular isolates; format: cell-based; conditions: S. epidermidis (N = 15); for MIC50 / MIC90: Staphylococcus epidermidis
Description: (§1) The success of in vivo antimicrobial action depends to a large extent on the host's defense mechanisms, which ultimately sequester and kill the microorganisms that have been reduced by the bacteriostatic/bactericidal action of the antibacterial agent. Thus, it is also of interest to profile the bactericidal activity of antimicrobial agents. The assessment of in vitro bactericidal activity can be accomplished in multiple ways, for example, the time-kill method or the determination of the minimum bactericidal concentration (MBC). […] Bactericidal agents are characterized by low MBC:MIC ratios.

[3] = system: H. influenzae; experiment: MIC and MBC:MIC ratio, recent ocular isolates; format: cell-based; conditions: H. influenzae (N = 40); for MIC50 / MIC90: Haemophilus influenzae
Description: as §1

[4] = system: S. aureus topoisomerase mutants; experiment: MIC against defined topoisomerase mutants; format: cell-based; conditions: Staphylococcus aureus
[5] = Nonclinical ocular tolerance, QID dosing for 28 days; format: in vivo
Description: ERG measurements were included in the studies due to the known retinal toxicity associated with some fluoroquinolones.

[6] = biological target: E. coli topoisomerase IV (Escherichia coli, UniProt P0AFI2+P20083); experiment: Cleavable complex stimulation (CC25), topoisomerase IV; format: biochemical; conditions: E. coli enzymes; concentration that produces 25% linearization of the DNA
[7] = biological target: T1, S. pneumoniae topoisomerase IV (Streptococcus pneumoniae serotype 4, UniProt P72525+Q59961); experiment: biochemical; format: biochemical
T1 sequence (P72525 1-823): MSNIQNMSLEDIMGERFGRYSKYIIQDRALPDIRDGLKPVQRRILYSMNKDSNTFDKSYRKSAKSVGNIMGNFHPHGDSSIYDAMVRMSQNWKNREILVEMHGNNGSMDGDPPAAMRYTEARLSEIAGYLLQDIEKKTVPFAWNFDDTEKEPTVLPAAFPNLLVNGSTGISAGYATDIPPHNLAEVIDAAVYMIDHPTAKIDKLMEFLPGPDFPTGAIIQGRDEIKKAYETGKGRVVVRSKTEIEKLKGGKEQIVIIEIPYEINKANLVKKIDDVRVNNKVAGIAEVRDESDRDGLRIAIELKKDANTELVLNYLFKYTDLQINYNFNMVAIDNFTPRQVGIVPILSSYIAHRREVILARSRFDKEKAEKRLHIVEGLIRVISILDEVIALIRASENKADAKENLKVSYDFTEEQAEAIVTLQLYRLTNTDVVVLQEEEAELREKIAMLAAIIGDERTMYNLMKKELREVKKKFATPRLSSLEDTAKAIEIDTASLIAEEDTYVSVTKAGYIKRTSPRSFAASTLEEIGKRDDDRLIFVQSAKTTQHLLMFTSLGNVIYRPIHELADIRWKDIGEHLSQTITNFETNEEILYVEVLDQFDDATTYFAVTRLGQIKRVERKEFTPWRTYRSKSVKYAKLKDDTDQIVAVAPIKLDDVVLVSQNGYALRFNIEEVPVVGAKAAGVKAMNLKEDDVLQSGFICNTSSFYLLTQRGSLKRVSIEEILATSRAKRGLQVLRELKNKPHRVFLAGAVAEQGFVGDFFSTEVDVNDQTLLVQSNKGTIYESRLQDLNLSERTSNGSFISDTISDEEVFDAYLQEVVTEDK
T1 sequence (Q59961 1-647): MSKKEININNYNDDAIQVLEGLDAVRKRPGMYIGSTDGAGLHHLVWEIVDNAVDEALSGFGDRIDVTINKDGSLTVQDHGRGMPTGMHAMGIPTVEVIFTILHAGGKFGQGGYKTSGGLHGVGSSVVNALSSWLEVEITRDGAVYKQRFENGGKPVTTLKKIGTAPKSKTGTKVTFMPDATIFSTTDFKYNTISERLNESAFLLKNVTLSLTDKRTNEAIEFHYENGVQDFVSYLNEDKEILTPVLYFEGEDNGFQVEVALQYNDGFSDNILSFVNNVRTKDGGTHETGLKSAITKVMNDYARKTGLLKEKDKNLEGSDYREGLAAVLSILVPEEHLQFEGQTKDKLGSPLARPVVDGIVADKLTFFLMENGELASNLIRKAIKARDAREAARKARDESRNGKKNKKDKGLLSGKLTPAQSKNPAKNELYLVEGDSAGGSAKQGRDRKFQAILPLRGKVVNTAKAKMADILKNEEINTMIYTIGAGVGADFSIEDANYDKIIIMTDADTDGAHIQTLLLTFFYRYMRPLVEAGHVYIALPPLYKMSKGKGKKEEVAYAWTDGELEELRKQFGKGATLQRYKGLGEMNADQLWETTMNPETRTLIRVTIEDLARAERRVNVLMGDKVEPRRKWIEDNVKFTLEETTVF

[8] = system: H. influenzae; experiment: MIC of clinical trial isolates, Studies 373, 433, 434; format: cell-based; conditions: Haemophilus influenzae, isolates of studies 373, 433, 434; read-out: MIC90
Method: (§2) PFGE testing was performed per standard procedures.
(§3) The antibacterial susceptibility profile of each Visit 1 bacterial isolate was determined for besifloxacin and other antimicrobials.

[9] = system: S. pneumoniae; experiment: as above; format: cell-based; conditions: Streptococcus pneumoniae, isolates of studies 373, 433, 434; read-out: MIC90
Method: as §2, §3

[10] = biological target: E. coli DNA gyrase (Escherichia coli, UniProt P0AES4+P0AES6); experiment: Cleavable complex stimulation (CC25), DNA gyrase; format: biochemical; conditions: E. coli enzymes; concentration that produces 25% linearization of the DNA
[11] = system: bacterial conjunctivitis; experiment: Study 373: besifloxacin ophthalmic suspension vs vehicle, TID 5 days; conditions: N = 60; for Clinical Resolution (2 indices), Resolution / Clinical Resolution (3 indices), No / Clinical Resolution (3 indices), Yes / Microbial Eradication, No / Microbial Eradication, Yes: ITT culture confirmed; for Clinical Resolution (2 indices), Non-resolution: missing or discontinued imputed as non-resolution
[12] = Visit 3 (Day 8 or 9), primary endpoint

Chain of E. coli DNA gyrase (P0AES4 whole entry, one chain of several): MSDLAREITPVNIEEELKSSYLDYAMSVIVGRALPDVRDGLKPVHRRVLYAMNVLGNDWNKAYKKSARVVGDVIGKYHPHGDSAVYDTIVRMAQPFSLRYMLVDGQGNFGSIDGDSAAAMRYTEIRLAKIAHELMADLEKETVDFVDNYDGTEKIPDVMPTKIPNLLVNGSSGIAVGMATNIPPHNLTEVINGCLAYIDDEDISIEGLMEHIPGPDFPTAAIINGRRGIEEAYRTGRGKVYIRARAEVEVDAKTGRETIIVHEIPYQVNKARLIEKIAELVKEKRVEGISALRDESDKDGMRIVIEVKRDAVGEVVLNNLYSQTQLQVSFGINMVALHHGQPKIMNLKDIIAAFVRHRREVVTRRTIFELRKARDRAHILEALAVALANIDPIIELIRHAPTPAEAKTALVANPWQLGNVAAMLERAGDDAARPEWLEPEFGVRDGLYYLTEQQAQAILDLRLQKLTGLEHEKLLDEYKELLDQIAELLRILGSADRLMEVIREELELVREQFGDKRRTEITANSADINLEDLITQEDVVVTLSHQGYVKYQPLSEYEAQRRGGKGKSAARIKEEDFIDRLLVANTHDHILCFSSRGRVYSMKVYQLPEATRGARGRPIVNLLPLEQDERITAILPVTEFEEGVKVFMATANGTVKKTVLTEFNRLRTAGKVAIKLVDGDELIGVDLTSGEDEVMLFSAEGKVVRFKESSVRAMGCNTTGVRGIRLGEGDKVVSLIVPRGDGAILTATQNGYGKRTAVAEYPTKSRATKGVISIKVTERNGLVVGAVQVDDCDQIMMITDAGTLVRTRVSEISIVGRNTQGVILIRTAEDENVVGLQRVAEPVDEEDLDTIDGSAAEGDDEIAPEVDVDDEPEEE
Chain of E. coli topoisomerase IV (P0AFI2 whole entry): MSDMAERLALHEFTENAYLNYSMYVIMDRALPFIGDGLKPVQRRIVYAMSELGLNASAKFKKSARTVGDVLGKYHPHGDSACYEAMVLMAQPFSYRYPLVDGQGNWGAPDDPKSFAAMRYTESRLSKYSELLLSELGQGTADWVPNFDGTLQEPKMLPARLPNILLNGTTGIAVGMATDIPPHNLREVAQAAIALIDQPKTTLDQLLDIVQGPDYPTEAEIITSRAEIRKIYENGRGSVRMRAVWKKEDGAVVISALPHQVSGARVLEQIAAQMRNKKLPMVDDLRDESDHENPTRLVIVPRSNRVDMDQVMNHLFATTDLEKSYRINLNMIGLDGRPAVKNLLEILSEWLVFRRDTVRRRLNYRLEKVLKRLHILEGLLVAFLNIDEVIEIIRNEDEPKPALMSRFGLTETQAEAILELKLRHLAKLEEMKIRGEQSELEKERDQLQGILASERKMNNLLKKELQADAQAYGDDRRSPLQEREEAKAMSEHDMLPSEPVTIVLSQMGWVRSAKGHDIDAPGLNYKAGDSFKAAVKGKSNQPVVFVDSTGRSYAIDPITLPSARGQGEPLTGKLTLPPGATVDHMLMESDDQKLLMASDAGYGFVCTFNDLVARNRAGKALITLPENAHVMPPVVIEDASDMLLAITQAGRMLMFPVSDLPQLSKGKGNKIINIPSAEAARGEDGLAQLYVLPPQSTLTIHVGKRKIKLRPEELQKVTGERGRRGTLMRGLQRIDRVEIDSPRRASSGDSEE
Chain of E. coli topoisomerase IV (P20083 whole entry): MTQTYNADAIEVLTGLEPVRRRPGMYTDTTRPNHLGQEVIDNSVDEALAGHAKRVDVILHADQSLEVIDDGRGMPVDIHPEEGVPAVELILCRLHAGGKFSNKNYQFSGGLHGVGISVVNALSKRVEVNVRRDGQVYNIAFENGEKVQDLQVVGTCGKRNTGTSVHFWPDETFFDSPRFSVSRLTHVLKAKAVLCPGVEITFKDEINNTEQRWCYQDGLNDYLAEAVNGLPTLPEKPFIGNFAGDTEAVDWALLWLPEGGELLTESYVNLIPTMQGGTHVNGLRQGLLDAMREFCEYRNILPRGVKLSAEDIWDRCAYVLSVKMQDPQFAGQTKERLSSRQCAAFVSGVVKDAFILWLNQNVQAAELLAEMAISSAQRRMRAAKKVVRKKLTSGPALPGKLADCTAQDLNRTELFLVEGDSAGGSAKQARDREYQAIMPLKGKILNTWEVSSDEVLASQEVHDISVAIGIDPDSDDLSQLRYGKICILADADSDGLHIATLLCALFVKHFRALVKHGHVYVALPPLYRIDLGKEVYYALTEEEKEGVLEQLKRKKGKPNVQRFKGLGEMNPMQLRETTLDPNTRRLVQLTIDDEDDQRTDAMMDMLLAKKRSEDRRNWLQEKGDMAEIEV

## CC[C@H]1OC(=O)[C@H](C)[C@@H](O[C@H]2C[C@@](C)(OC)[C@@H](O)[C@H](C)O2)[C@H](C)[C@@H](O[C@@H]2O[C@H](C)C[C@H](N(C)C)[C@H]2O)[C@](C)(O)C[C@@H](C)CN(C)[C@H](C)[C@@H](O)[C@]1(C)O [Azithromycin]
[1]; recent ocular isolates
  % S (susceptible isolates, CLSI): 62.9%
  MIC50: 0.06 µg/mL
  MIC90: > 8 µg/mL
[2]; recent ocular isolates
  % S (susceptible isolates, CLSI): 26.7%
  MIC50: > 8 µg/mL
  MIC90: > 8 µg/mL
[3]; recent ocular isolates
  % S (susceptible isolates, CLSI): 100.0%
  MIC Range: ≦0.004-2 μg/mL
  MIC50: 0.5 µg/mL
  MIC90: 1 µg/mL

## N[C@@H]1CCCCN(c2c(F)cc3c(=O)c(C(=O)O)cn(C4CC4)c3c2Cl)C1 [Besifloxacin, (R)-(+)-(3-amino-2,3,4,5,6,7-hexahydro-1H-azepin-1-yl)-8-chloro-1-cyclopropyl-6-fluoro-1,4,-dihydro-4-oxo-3-quinolinecarboxylic acid]
[4]; S. aureus Wild type
  MIC: 0.03 µg/mL (≈ 0.0762 µM)
[4]; S. aureus parC S80F (or E84K)
  MIC: 0.06 µg/mL (≈ 0.152 µM)
[4]; S. aureus parC S80F + gyrA S84L
  MIC: 0.5 µg/mL
[5]
  non-clinical ocular tolerance: no adverse effects observed
[6]
  CC25 Topo IV: 1.4 μM and 0.6 μg/mL
[1]
  % of isolates with MBC:MIC ratio 1: 60.0%
  % of isolates with MBC:MIC ratio 2: 37.1%
  % of isolates with MBC:MIC ratio 4: 2.9%
  % of isolates with MBC:MIC ratio 8: 0.0%
  % of isolates with MBC:MIC ratio ≧16: 0.0%
[1]; recent ocular isolates
  MIC Range: 0.015 to 0.5 µg/mL
  MIC50: 0.06 µg/mL
  MIC90: 0.06 µg/mL
[7]; IC50 Topo IV, S. pneumoniae enzymes
  IC50: 1000 nM and 1020 nM
[7]; S. pneumoniae topoisomerase IV
  potency relative to ciprofloxacin and moxifloxacin (catalytic inhibition and cleavable complex stimulation): 2.5- to 5.0 fold
[8]
  MIC90: 0.06 µg/mL
[9]
  MIC90: 0.125 µg/mL
[10]
  CC25 Gyrase: 0.1 μM and 0.04 μg/mL
[2]
  % of isolates with MBC:MIC ratio 1: 73.3%
  % of isolates with MBC:MIC ratio 2: 20.0%
  % of isolates with MBC:MIC ratio 4: 6.7%
  % of isolates with MBC:MIC ratio 8: 0.0%
  % of isolates with MBC:MIC ratio ≧16: 0.0%
[2]; recent ocular isolates
  MIC Range: 0.015 to 4 µg/mL
  MIC50: 0.03 µg/mL
  MIC90: 4 µg/mL
[3]
  % of isolates with MBC:MIC ratio 1: 42.5%
  % of isolates with MBC:MIC ratio 2: 50.0%
  % of isolates with MBC:MIC ratio 4: 7.5%
  % of isolates with MBC:MIC ratio 8: 0.0%
  % of isolates with MBC:MIC ratio ≧16: 0.0%
[3]; recent ocular isolates
  MIC Range: ≦0.004-0.03 μg/mL
  MIC50: 0.015 µg/mL
  MIC90: 0.015 µg/mL
[11]; Visit 2 (Day 4 ± 1)
  Clinical Resolution (2 indices), Resolution: 20 (33.3) n (%)
  Clinical Resolution (3 indices), No: 46 (76.7) n (%)
  Clinical Resolution (3 indices), Yes: 14 (23.3) n (%)
  Microbial Eradication, No: 6 (10.0) n (%)
  Microbial Eradication, Yes: 54 (90.0) n (%)
  Clinical Resolution (2 indices), Non-resolution: 40 (66.7) n (%)
[11]; Visit 3 (Day 8 or 9)
  Clinical Resolution (2 indices), Resolution: 44 (73.3) n (%)
  Clinical Resolution (3 indices), No: 23 (38.3) n (%)
  Microbial Eradication, No: 6 (10.0) n (%)
  Clinical Resolution (2 indices), Non-resolution: 16 (26.7) n (%)
[11]; [12]
  Clinical Resolution (3 indices), Yes: 37 (61.7) n (%)
  Microbial Eradication, Yes: 54 (90.0) n (%)

Reference: patent publication US8415342B2, “Besifloxacin ophthalmic composition for the treatment or control of infection” (Bausch & Lomb Incorporated, priority 2008, dated 2013)
